# pIC50: −log10 of the molar value.
# Tested on: RPMI-8226
# Assay: Cellular RPMI-8226 viability assay (CellTiter-Glo, 72 hours)
# Type: cell-based
# Conditions: Homo sapiens
# In short: (§1)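 Cells plated in 96 wells and exposed to compound 72 h at 37 °C, 5% CO2, final DMSO below 0.1%, DMSO control. Viability by CellTiter-Glo luminescence, duplicate.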
row,pIC50,Structure (SMILES)
1,5.00 to 6.00,CC(C)c1cnn2c(NCc3ccccc3-c3cc4ccccc4[nH]3)nc(N3CCNC(=O)C3)nc12 [Compound 175]

# Target: T1, CDK5/p25 (Homo sapiens, UniProt Q00535)
# T1 construct: purchased Invitrogen PR8543B
# T1 sequence (Q00535 whole entry): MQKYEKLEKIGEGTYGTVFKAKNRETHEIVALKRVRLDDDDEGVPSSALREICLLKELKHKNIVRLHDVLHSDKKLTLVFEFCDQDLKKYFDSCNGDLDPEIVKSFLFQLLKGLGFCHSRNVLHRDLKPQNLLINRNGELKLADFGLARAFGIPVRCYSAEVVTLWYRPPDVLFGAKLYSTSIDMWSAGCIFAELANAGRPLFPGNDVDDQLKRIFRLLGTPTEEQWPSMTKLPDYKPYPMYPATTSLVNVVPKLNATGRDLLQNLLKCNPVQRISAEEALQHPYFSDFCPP
# T1 sequence (Q15078 99-307 partner limits assumed): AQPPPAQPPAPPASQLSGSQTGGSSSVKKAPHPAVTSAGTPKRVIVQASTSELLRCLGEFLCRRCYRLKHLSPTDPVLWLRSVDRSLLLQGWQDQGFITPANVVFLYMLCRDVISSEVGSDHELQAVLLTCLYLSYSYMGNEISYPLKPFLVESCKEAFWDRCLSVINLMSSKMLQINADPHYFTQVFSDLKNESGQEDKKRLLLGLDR
# Assay: Enzymatic assay for CDK5 (FRET based LANCE Ultra kinase assay)
# Type: biochemical
# Conditions: read-out: CDK5 enzymatic activity (IC50 range)
# In short: (§2)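 Each CDK complex ([…]) phosphorylated 68 nM ULight-MBP peptide with ATP at Km for 60 min at 23° C., against 8 compound doses (4-fold dilutions). EDTA/Eu-anti-phospho-MBP detection, 60 min, then TR-FRET emission at 615 and 665 nm.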
row,pIC50,Structure (SMILES)
1,6.00 to 7.00,CC(C)c1cnn2c(NCc3ccccc3-n3cccn3)nc(N3CCC(N4CCNCC4)CC3)nc12 [Compound 174]
2,< 6.00,CC(C)c1cnn2c(NCc3ccccc3-c3cc4ccccc4[nH]3)nc(N3CCNC(=O)C3)nc12 [Compound 175]
3,6.00 to 7.00,CC(C)c1cnn2c(NCc3c(Cl)cccc3-n3cc(N4CCNCC4)cn3)nc(N3CCC(N)CC3)nc12 [Compound 193]

# Tested on: MOLT-4
# Assay: Cellular MOLT-4 viability assay (CellTiter-Glo, 72 hours)
# Type: cell-based
# Conditions: Homo sapiens, MOLT4 viability assay
# In short: as §1
row,pIC50,Structure (SMILES)
1,< 5.00,CC(C)c1cnn2c(NCc3ccccc3-n3cccn3)nc(N3CCC(N4CCNCC4)CC3)nc12 [Compound 174]

# Tested on: H460
# Assay: Cellular H460 viability assay (CellTiter-Glo, 72 hours)
# Type: cell-based
# Conditions: Homo sapiens, NCI-H460
# In short: as §1
row,pIC50,Structure (SMILES)
1,> 6.00,CC(C)c1cnn2c(NCc3ccccc3-n3cccn3)nc(N3CCC(N4CCNCC4)CC3)nc12 [Compound 174]
2,5.00 to 6.00,CC(C)c1cnn2c(NCc3ccccc3-c3cc4ccccc4[nH]3)nc(N3CCNC(=O)C3)nc12 [Compound 175]
3,> 6.00,CC(C)c1cnn2c(NCc3c(Cl)cccc3-n3cc(N4CCNCC4)cn3)nc(N3CCC(N)CC3)nc12 [Compound 193]

# Target: T2, CDK1/Cyclin B (Homo sapiens, UniProt P06493)
# T2 construct: purchased Invitrogen PR4768C
# T2 sequence (P06493 whole entry): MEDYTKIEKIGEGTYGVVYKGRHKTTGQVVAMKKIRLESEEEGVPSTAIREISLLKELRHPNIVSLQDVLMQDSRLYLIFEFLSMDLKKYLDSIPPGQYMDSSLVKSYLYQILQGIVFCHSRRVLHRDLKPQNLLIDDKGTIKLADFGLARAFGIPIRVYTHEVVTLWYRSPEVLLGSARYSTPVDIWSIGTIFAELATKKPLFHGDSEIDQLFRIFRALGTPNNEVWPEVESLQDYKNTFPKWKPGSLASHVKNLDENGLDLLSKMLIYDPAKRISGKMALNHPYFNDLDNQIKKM
# T2 sequence (P14635 whole entry partner): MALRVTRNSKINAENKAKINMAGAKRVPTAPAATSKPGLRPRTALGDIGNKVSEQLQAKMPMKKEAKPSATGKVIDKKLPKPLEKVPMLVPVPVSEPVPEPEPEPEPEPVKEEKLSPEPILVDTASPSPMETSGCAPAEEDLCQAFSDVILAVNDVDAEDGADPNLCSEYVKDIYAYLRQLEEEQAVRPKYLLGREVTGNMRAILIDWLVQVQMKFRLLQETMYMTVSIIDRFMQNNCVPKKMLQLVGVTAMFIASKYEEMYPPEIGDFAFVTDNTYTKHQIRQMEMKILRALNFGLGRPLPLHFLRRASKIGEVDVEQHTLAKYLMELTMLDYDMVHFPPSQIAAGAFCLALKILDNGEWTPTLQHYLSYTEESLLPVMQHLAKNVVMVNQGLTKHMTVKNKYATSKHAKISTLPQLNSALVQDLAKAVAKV
# Assay: Enzymatic assay for CDK1 (FRET based LANCE Ultra kinase assay)
# Type: biochemical
# Conditions: read-out: CDK1 enzymatic activity (IC50 range)
# In short: as §2
row,pIC50,Structure (SMILES)
1,< 6.00,CC(C)c1cnn2c(NCc3ccccc3-n3cccn3)nc(N3CCC(N4CCNCC4)CC3)nc12 [Compound 174]
2,< 6.00,CC(C)c1cnn2c(NCc3ccccc3-c3cc4ccccc4[nH]3)nc(N3CCNC(=O)C3)nc12 [Compound 175]
3,< 6.00,CC(C)c1cnn2c(NCc3c(Cl)cccc3-n3cc(N4CCNCC4)cn3)nc(N3CCC(N)CC3)nc12 [Compound 193]

# Tested on: MM.1S
# Assay: Cellular MM.1S viability assay (CellTiter-Glo, 72 hours)
# Type: cell-based
# Conditions: Homo sapiens, MM1.S
# Source text: Human T-cell acute lymphoblastic leukemia cell line, MOLT-4 (ATCC, Cat #CRL-1582), Human multiple myeloma cell line, RPMI-8226 (Invitrogen, Cat #22400-089) and MM.1S (ATCC, Cat #CRL-2974), NSCLC (Non-small cell lung cancer) cell line H460 (ATCC, Cat #HTB-177), Human colon colorectal carcinoma cell line HCT116 (ATCC, Cat #CCL-247), Human acute monocytic leukemia cell line MV4-11 (ATCC, Cat #CRL-9591), OVCAR-3 (ATCC, Cat #HTB-161) and A2780 (ECACC, Cat #93112519) were obtained from ATCC. Cells were grown in RPMI-1640 media (Invitrogen, Cat #22400-089) supplemented with 10% FBS (Invitrogen, Cat #10099141) and 1% penicillin/streptomycin (Invitrogen, Cat #15070063) and cultured at 37° C., 5% CO2 in a humidified chamber. All cell lines were routinely tested for mycoplasma.
# The effect of the CDK7 inhibitor to inhibit the growth of target cancer cells was evaluated through the 72 hours time period of viability assay. Briefly, the candidate cell line ware plated in 96 well plate at the following density of cells respectively. 1×10^4 cells/well for MOLT-4, RPMI-8226, MV4-11 and MM.1S, 5×10^3 for H460, HCT116 and OVCAR-3 and IX 10^3 for A2780. After 24 hours, the cells were treated with various concentrations of the compound (ranging from 0.0015 uM to 10 uM). DMSO solvent without compound served as a control and final DMSO concentration less than 0.1%. After 72 hours of incubation at 37° C., 5% CO2 incubator, cells were analyzed for the viability using the CellTiter-Glo Luminescent Cell Viability Assay (Promega, Cat #G7570). All viability assays were performed in duplicate and Luminescence was read using an Envision (Perkin Elmer, USA). Data was analyzed using XLfit software.
row,pIC50,Structure (SMILES)
1,≥ 6.00,CC(C)c1cnn2c(NCc3ccccc3-n3cccn3)nc(N3CCC(N4CCNCC4)CC3)nc12 [Compound 174]
2,5.00 to 6.00,CC(C)c1cnn2c(NCc3ccccc3-c3cc4ccccc4[nH]3)nc(N3CCNC(=O)C3)nc12 [Compound 175]
3,≥ 6.00,CC(C)c1cnn2c(NCc3c(Cl)cccc3-n3cc(N4CCNCC4)cn3)nc(N3CCC(N)CC3)nc12 [Compound 193]

# Target: T3, CDK2/Cyclin A (Homo sapiens, UniProt P24941)
# T3 construct: purchased Invitrogen PV6290
# Assay: Enzymatic assay for CDK2 (FRET based LANCE Ultra kinase assay)
# Type: biochemical
# Conditions: read-out: CDK2 enzymatic activity (IC50 range)
# In short: as §2
row,pIC50,Structure (SMILES)
1,< 6.00,CC(C)c1cnn2c(NCc3ccccc3-n3cccn3)nc(N3CCC(N4CCNCC4)CC3)nc12 [Compound 174]
2,< 6.00,CC(C)c1cnn2c(NCc3ccccc3-c3cc4ccccc4[nH]3)nc(N3CCNC(=O)C3)nc12 [Compound 175]
3,< 6.00,CC(C)c1cnn2c(NCc3c(Cl)cccc3-n3cc(N4CCNCC4)cn3)nc(N3CCC(N)CC3)nc12 [Compound 193]

# Target: T4, CDK7/Cyclin H/MNAT1 (Homo sapiens, UniProt P50613)
# T4 construct: purchased Invitrogen PR6749B
# T4 sequence (P50613 whole entry): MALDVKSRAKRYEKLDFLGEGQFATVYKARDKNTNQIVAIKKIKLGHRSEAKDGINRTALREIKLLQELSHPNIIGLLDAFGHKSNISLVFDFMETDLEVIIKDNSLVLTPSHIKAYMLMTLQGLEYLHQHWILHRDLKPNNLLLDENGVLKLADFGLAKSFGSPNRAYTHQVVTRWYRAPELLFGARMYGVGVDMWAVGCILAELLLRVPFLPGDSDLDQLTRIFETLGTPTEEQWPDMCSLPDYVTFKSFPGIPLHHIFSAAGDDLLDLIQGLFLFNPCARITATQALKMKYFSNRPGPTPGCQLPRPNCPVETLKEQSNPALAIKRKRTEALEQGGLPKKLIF
# T4 sequence (P51946 whole entry partner): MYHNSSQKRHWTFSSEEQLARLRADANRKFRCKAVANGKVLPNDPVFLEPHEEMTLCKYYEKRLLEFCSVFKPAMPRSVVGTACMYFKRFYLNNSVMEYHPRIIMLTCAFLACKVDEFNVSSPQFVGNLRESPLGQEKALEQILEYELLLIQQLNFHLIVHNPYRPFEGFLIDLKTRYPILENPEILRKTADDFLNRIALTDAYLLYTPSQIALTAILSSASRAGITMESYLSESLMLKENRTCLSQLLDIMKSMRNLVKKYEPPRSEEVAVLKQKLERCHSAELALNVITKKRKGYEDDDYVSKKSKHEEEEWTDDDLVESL
# T4 sequence (P51948 whole entry partner): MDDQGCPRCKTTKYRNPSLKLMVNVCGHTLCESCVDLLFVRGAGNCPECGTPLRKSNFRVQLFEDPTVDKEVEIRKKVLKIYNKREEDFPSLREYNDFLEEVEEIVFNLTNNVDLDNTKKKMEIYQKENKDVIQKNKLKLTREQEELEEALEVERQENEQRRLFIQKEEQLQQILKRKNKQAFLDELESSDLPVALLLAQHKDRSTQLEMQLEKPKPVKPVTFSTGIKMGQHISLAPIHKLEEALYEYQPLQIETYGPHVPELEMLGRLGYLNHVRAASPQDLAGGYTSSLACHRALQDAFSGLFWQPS
# Assay: Enzymatic assay for CDK7 (FRET based LANCE Ultra kinase assay)
# Type: biochemical
# Conditions: CDK7 over CDK1
# In short: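 LANCE Ultra TR-FRET kinase assay using a ULight-labeled peptide substrate and a Eu-labeled anti-phospho antibody, with ATP at its Km. Purified CDK/cyclin complex was added to compound after brief centrifugation.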
row,CDK1/CDK7: Selectivity of CDK7 inhibition over CDK1 inhibition,Structure (SMILES)
1,A (A=greater than 200 fold),CC(C)c1cnn2c(NCc3ccccc3-n3cccn3)nc(N3CCC(N4CCNCC4)CC3)nc12 [Compound 174]
2,A (A=greater than 200 fold),CC(C)c1cnn2c(NCc3ccccc3-c3cc4ccccc4[nH]3)nc(N3CCNC(=O)C3)nc12 [Compound 175]
3,A (A=greater than 200 fold),CC(C)c1cnn2c(NCc3c(Cl)cccc3-n3cc(N4CCNCC4)cn3)nc(N3CCC(N)CC3)nc12 [Compound 193]

# Same assay, conditions: CDK7 over CDK2
row,CDK2/CDK7: Selectivity of CDK7 inhibition over CDK2 inhibition,Structure (SMILES)
1,A (A=greater than 200 fold),CC(C)c1cnn2c(NCc3ccccc3-n3cccn3)nc(N3CCC(N4CCNCC4)CC3)nc12 [Compound 174]
2,A (A=greater than 200 fold),CC(C)c1cnn2c(NCc3c(Cl)cccc3-n3cc(N4CCNCC4)cn3)nc(N3CCC(N)CC3)nc12 [Compound 193]

row,Structure (SMILES),CDK2/CDK7: Selectivity of CDK7 inhibition over CDK2 inhibition
1,CC(C)c1cnn2c(NCc3ccccc3-c3cc4ccccc4[nH]3)nc(N3CCNC(=O)C3)nc12 [Compound 175],"B (B=less than 200 fold, but greater than 20 fold)"

# Same assay, conditions: CDK7 over CDK5
row,Structure (SMILES),CDK5/CDK7: Selectivity of CDK7 inhibition over CDK5 inhibition
1,CC(C)c1cnn2c(NCc3ccccc3-n3cccn3)nc(N3CCC(N4CCNCC4)CC3)nc12 [Compound 174],"B (B=less than 200 fold, but greater than 20 fold)"
2,CC(C)c1cnn2c(NCc3ccccc3-c3cc4ccccc4[nH]3)nc(N3CCNC(=O)C3)nc12 [Compound 175],"B (B=less than 200 fold, but greater than 20 fold)"
3,CC(C)c1cnn2c(NCc3c(Cl)cccc3-n3cc(N4CCNCC4)cn3)nc(N3CCC(N)CC3)nc12 [Compound 193],"B (B=less than 200 fold, but greater than 20 fold)"

# Same assay, conditions: read-out: CDK7 enzymatic activity (IC50 range)
row,pIC50,Structure (SMILES)
1,> 7.00,CC(C)c1cnn2c(NCc3ccccc3-n3cccn3)nc(N3CCC(N4CCNCC4)CC3)nc12 [Compound 174]
2,> 7.00,CC(C)c1cnn2c(NCc3ccccc3-c3cc4ccccc4[nH]3)nc(N3CCNC(=O)C3)nc12 [Compound 175]
3,> 7.00,CC(C)c1cnn2c(NCc3c(Cl)cccc3-n3cc(N4CCNCC4)cn3)nc(N3CCC(N)CC3)nc12 [Compound 193]

# Tested on: HCT116
# Assay: Cellular HCT116 viability assay (CellTiter-Glo, 72 hours)
# Type: cell-based
# Conditions: Homo sapiens, HCT-116
# In short: as §1
row,pIC50,Structure (SMILES)
1,5.00 to 6.00,CC(C)c1cnn2c(NCc3ccccc3-c3cc4ccccc4[nH]3)nc(N3CCNC(=O)C3)nc12 [Compound 175]
2,> 6.00,CC(C)c1cnn2c(NCc3c(Cl)cccc3-n3cc(N4CCNCC4)cn3)nc(N3CCC(N)CC3)nc12 [Compound 193]

# Tested on: MV4-11
# Assay: Cellular MV4-11 viability assay (CellTiter-Glo, 72 hours)
# Type: cell-based
# Conditions: Homo sapiens
# In short: as §1
row,pIC50,Structure (SMILES)
1,> 6.00,CC(C)c1cnn2c(NCc3ccccc3-n3cccn3)nc(N3CCC(N4CCNCC4)CC3)nc12 [Compound 174]
2,5.00 to 6.00,CC(C)c1cnn2c(NCc3ccccc3-c3cc4ccccc4[nH]3)nc(N3CCNC(=O)C3)nc12 [Compound 175]
3,> 6.00,CC(C)c1cnn2c(NCc3c(Cl)cccc3-n3cc(N4CCNCC4)cn3)nc(N3CCC(N)CC3)nc12 [Compound 193]
